The values below come from patent US20260217697A1, “COMPOUNDS COMPRISING HETEROARYL RINGS AND COMPOSITIONS AND METHODS THEREOF” (lonGen Therapeutics Co., Ltd., priority 2022, published 2026).

This assay concerns the target T1, hTRPV3 (Homo sapiens, UniProt Q8NET8).
T1 construct: The commercially available plasmid with the full-length cDNA of hTRPV3 (791 aa) (NM_001258205.2); host or cells: HEK293T
T1 sequence (Q8NET8 1-791 isoform Q8NET8-2): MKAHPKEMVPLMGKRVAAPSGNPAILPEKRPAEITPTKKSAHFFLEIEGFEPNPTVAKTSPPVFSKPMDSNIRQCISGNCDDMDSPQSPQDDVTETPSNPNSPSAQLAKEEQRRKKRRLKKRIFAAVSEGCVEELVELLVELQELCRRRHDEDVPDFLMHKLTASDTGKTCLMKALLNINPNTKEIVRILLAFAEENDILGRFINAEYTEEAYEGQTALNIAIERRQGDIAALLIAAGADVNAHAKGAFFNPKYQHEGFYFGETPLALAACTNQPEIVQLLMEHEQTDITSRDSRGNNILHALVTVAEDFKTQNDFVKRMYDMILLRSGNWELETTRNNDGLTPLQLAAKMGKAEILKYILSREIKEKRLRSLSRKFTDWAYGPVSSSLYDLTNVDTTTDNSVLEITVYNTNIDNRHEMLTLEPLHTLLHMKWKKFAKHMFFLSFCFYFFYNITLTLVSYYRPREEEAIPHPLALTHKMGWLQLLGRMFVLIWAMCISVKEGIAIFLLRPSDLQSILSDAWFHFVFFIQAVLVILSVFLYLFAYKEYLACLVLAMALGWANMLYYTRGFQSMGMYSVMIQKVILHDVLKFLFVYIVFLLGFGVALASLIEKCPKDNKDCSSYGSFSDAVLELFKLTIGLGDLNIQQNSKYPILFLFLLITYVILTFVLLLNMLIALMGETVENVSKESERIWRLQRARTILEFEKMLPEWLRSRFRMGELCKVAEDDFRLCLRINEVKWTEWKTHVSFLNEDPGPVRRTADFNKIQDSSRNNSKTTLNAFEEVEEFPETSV
Put plainly: Whole-cell patch-clamp recording of hTRPV3 current in transfected HEK293T cells (2-APB induced). As to conditions: current induced by 300 μM 2-APB, compounds tested up to 10 μM, room temperature. It is filed as cell-based. In short, it runs like this: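 HEK293T cells transiently expressing full-length hTRPV3, recorded by whole-cell patch clamp 18 h post-transfection at room temperature, with 130 mM NaCl/0.3 mM EDTA/3 mM HEPES pH 7.4 on both sides. Holding potential 0 mV; 400-ms steps to +80 and −80 mV every 2 s. Block of 2-APB-evoked current, tested up to 10 μM, fitted to Hill equation for IC50.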
(In general: Patch clamp records ionic current or voltage across a cell membrane.)
As a reminder, the IC50 is the concentration that inhibits the measured activity by half. A high value points to a need for much substance. As for `COc1ncnc(OC)c1C(=O)Nc1nc2c(s1)C1(CN(C(C)=O)C1)Oc1cc(C(F)(F)F)ccc1-2` [compound 68, N-(1-acetyl-7′-(trifluoromethyl)spiro[azetidine-3,4′-chromeno[4,3-d]thiazol]-2′-yl)-4,6-dimethoxypyrimidine-5-carboxamide], the IC50 is 1 to 10 µM.
`COc1ncnc(OC)c1C(=O)Nc1nc2c(s1)C1(CCN(C(=O)C3CC3)CC1)Oc1cc(C(F)(F)F)ccc1-2` [compound 69, N-(1′-(cyclopropanecarbonyl)-7-(trifluoromethyl)spiro[chromeno[4,3-d]thiazole-4,4′-piperidin]-2-yl)-4,6-dimethoxypyrimidine-5-carboxamide] showed a 50% inhibitory concentration (IC50) of 0.1 to 1 µM.
`CCC1(CC)Oc2cc(C(F)(F)F)ccc2-c2nc(NC(=O)c3c(OC)ncnc3OCCOC)sc21` [compound 70, N-(4,4-diethyl-7-(trifluoromethyl)-4H-chromeno[4,3-d]thiazol-2-yl)-4-methoxy-6-(2-methoxyethoxy)pyrimidine-5-carboxamide] had an IC50 of 0.1 to 1 µM.
For the compound `COc1ncnc(OC)c1C(=O)Nc1nc2c(ccc3cc(C#N)ccc32)s1` [compound 71, N-(7-cyanonaphtho[1,2-d]thiazol-2-yl)-4,6-dimethoxypyrimidine-5-carboxamide], the IC50 is not below 10 µM.
The compound `COc1ncnc(OC)c1C(=O)Nc1nc2c(cnc3cc(C(F)(F)F)ccc32)s1` [compound 72, 4,6-dimethoxy-N-(7-(trifluoromethyl)thiazolo[5,4-c]quinolin-2-yl)pyrimidine-5-carboxamide] had an IC50 of 1 to 10 µM.
The compound `COc1ncnc(OC)c1C(=O)Nc1nc2c(s1)C1(CCN(S(C)(=O)=O)CC1)Oc1cc(C(F)(F)F)ccc1-2` [compound 73, 4,6-dimethoxy-N-(1′-(methylsulfonyl)-7-(trifluoromethyl)spiro[chromeno[4,3-d]thiazole-4,4′-piperidin]-2-yl)pyrimidine-5-carboxamide] returned a half-inhibitory concentration (IC50) of 1 to 10 µM.
`CCC(C)(C)C(=O)N1CC2(C1)Oc1cc(C(F)(F)F)ccc1-c1nc(NC(=O)c3c(OC)ncnc3OC)sc12` [compound 74, N-(1-(2,2-dimethylbutanoyl)-7′-(trifluoromethyl)spiro[azetidine-3,4′-chromeno[4,3-d]thiazol]-2′-yl)-4,6-dimethoxypyrimidine-5-carboxamide] registered an IC50 of 0.1 to 1 µM.
`COc1ncnc(OC)c1C(=O)Nc1nc2c(s1)C1(CN(C(=O)c3ccccc3)C1)Oc1cc(C(F)(F)F)ccc1-2` [compound 75, N-(1-benzoyl-7′-(trifluoromethyl)spiro[azetidine-3,4′-chromeno[4,3-d]thiazol]-2′-yl)-4,6-dimethoxypyrimidine-5-carboxamide] showed an IC50 of 0.1 to 1 µM.
Compound `COc1ncnc(OC)c1C(=O)Nc1nc2c(s1)C1(CN(C(=O)c3ccco3)C1)Oc1cc(C(F)(F)F)ccc1-2` [compound 76, N-(1-(furan-2-carbonyl)-7′-(trifluoromethyl)spiro[azetidine-3,4′-chromeno[4,3-d]thiazol]-2′-yl)-4,6-dimethoxypyrimidine-5-carboxamide] returned a half-inhibitory concentration (IC50) of 1 to 10 µM.
The compound `CCCCOC(=O)N1CC2(C1)Oc1cc(C(F)(F)F)ccc1-c1nc(NC(=O)c3c(OC)ncnc3OC)sc12` [compound 77, butyl 2′-(4,6-dimethoxypyrimidine-5-carboxamido)-7′-(trifluoromethyl)spiro[azetidine-3,4′-chromeno[4,3-d]thiazole]-1-carboxylate] displayed a 50% inhibitory concentration (IC50) of 0.1 to 1 µM.
Regarding `CCOC(=O)N1CC2(C1)Oc1cc(C(F)(F)F)ccc1-c1nc(NC(=O)c3c(OC)ncnc3OC)sc12` [compound 78, ethyl 2′-(4,6-dimethoxypyrimidine-5-carboxamido)-7′-(trifluoromethyl)spiro[azetidine-3,4′-chromeno[4,3-d]thiazole]-1-carboxylate], the IC50 lay within 0.1 to 1 µM.
Take `CCC1(CC)Oc2cc(C(F)(F)F)ccc2-c2nc(NC(=O)c3c(OC)nc(O)nc3OC)sc21` [compound 79]: the half-inhibitory concentration (IC50) was not below 10 µM.
Take `CCC1(CC)Oc2cc(C(F)(F)F)ccc2-c2nc(NC(=O)c3c(OC)nc(N)nc3OC)sc21` [compound 80, 2-amino-N-(4,4-diethyl-7-(trifluoromethyl)-4H-chromeno[4,3-d]thiazol-2-yl)-4,6-dimethoxypyrimidine-5-carboxamide]: the half-inhibitory concentration (IC50) is not below 10 µM.
Turning to `C#Cc1ccc2c(c1)OC(CC)(CC)c1sc(NC(=O)c3c(OC)ncnc3OC)nc1-2` [compound 81, N-(4,4-diethyl-7-ethynyl-4H-chromeno[4,3-d]thiazol-2-yl)-4,6-dimethoxypyrimidine-5-carboxamide], the IC50 was in the range of 0.1 to 1 µM.
In turn, `COc1ncnc(OC)c1C(=O)Nc1nc2c(s1)CCOc1cc(C(F)(F)F)ccc1-2` [compound 82, 4,6-dimethoxy-N-(8-(trifluoromethyl)-4,5-dihydrobenzo[2,3]oxepino[4,5-d]thiazol-2-yl)pyrimidine-5-carboxamide] had an IC50 of 0.1 to 1 µM.
With `CCC1(CC)Oc2ccc(C(F)(F)F)cc2-c2nc(NC(=O)c3c(OC)ncnc3OC)sc21` [compound 83, N-(4,4-diethyl-8-(trifluoromethyl)-4H-chromeno[4,3-d]thiazol-2-yl)-4,6-dimethoxypyrimidine-5-carboxamide], the 50% inhibitory concentration (IC50) was not below 10 µM.
With `COc1ncnc(OC)c1C(=O)Nc1nc2c(s1)Cc1cc(C(F)(F)F)ccc1-2` [compound 84, 4,6-dimethoxy-N-(6-(trifluoromethyl)-8H-indeno[1,2-d]thiazol-2-yl)pyrimidine-5-carboxamide], the IC50 lay in the range of 1 to 10 µM.
For the compound `COc1ncnc(OC)c1C(=O)Nc1nc2c(s1)C(C)(C)Nc1cc(C(F)(F)F)ccc1-2` [compound 85, N-(4,4-dimethyl-7-(trifluoromethyl)-4,5-dihydrothiazolo[5,4-c]quinolin-2-yl)-4,6-dimethoxypyrimidine-5-carboxamide], the IC50 is 1 to 10 µM.
As for `COc1ncnc(OC)c1C(=O)Nc1nc2c(s1)COc1ccc(Cl)cc1-2` [compound 86, N-(8-chloro-4H-chromeno[4,3-d]thiazol-2-yl)-4,6-dimethoxypyrimidine-5-carboxamide], the IC50 lay within 1 to 10 µM.
To `COc1ncnc(OC)c1C(=O)Nc1nc2c(s1)C(C)(C)N(C)c1cc(C(F)(F)F)ccc1-2` [compound 87, 4,6-dimethoxy-N-(4,4,5-trimethyl-7-(trifluoromethyl)-4,5-dihydrothiazolo[5,4-c]quinolin-2-yl)pyrimidine-5-carboxamide] belongs 0.1 to 1 µM; to `C=CCN1c2cc(C(F)(F)F)ccc2-c2nc(NC(=O)c3c(OC)ncnc3OC)sc2C1(C)C` [compound 88, N-(5-allyl-4,4-dimethyl-7-(trifluoromethyl)-4,5-dihydrothiazolo[5,4-c]quinolin-2-yl)-4,6-dimethoxypyrimidine-5-carboxamide], 0.1 to 1 µM; to `CCC1(CC)Oc2cc(C(F)(F)F)ccc2-c2nc(NC(=O)c3cc(OC)nnc3Cl)sc21` [compound 89, 3-chloro-N-(4,4-diethyl-7-(trifluoromethyl)-4H-chromeno[4,3-d]thiazol-2-yl)-6-methoxypyridazine-4-carboxamide], not below 10 µM.
In the case of `CCC1(CC)Oc2cc(C(F)(F)F)ccc2-c2nc(NC(=O)c3cc(Cl)nnc3OC)sc21` [compound 90, 6-chloro-N-(4,4-diethyl-7-(trifluoromethyl)-4H-chromeno[4,3-d]thiazol-2-yl)-3-methoxypyridazine-4-carboxamide], the IC50 is 1 to 10 µM.
Compound `CCC1(CC)Oc2cc(C(F)(F)F)ccc2-c2nc(NC(=O)c3cc(OC)nnc3OC)sc21` [compound 91, N-(4,4-diethyl-7-(trifluoromethyl)-4H-chromeno[4,3-d]thiazol-2-yl)-3,6-dimethoxypyridazine-4-carboxamide] gave an IC50 not below 10 µM.
With `COC(=O)N1CC2(C1)Oc1cc(C(F)(F)F)ccc1-c1nc(NC(=O)c3c(OC)ncnc3OC)sc12` [compound 92, methyl 2′-(4,6-dimethoxypyrimidine-5-carboxamido)-7′-(trifluoromethyl)spiro[azetidine-3,4′-chromeno[4,3-d]thiazole]-1-carboxylate], the 50% inhibitory concentration (IC50) is 0.1 to 1 µM.
As for `CCC1(CC)Oc2cc(C(F)(F)F)ccc2-c2nc(NC(=O)c3c(C)n[nH]c3C)sc21` [compound 93, N-(4,4-diethyl-7-(trifluoromethyl)-4H-chromeno[4,3-d]thiazol-2-yl)-3,5-dimethyl-1H-pyrazole-4-carboxamide], the IC50 lay in the range of 1 to 10 µM.
With `CCC1(CC)Oc2cc(C(F)(F)F)ccc2-c2nc(NC(=O)c3c[nH]nc3OC)sc21` [compound 94, N-(4,4-diethyl-7-(trifluoromethyl)-4H-chromeno[4,3-d]thiazol-2-yl)-3-methoxy-1H-pyrazole-4-carboxamide], the IC50 was not below 10 µM.
